Target: T1, xanthine oxidase found in milk (Bos taurus, UniProt P80457)
T1 construct: purchased
Experiment: Inhibition of the action of xanthine oxidase in vitro (U.V. spectrophotometry, formation of uric acid from hypoxanthine)
Format: biochemical
Conditions: compound at 10^-5 M; hypoxanthine substrate, pH 7.4, 37° C.
Description: This trial was performed with xanthine oxidase found in milk. The activity of the enzymatic preparation was measured by following the formation of uric acid starting from hypoxanthine in the presence of oxygen and of a phosphate buffer solution.
(§1) The experimental procedure described hereunder was used:
In the absorption cell, the following solutions were introduced:
1.5 ml of a 0.1 molar phosphate buffer solution (pH=7.4) saturated with oxygen.
0.3 ml of a 1 m molar solution of ethylene diamine tetraacetate.
0.01 ml of a commercial xanthine oxidase solution having a known concentration in enzyme.
0.01 ml of a 3.10^-3 molar ethanolic solution of the compound to be tested.
The contents of the absorption cell were allowed to incubate for 2 minutes and then the enzymatic reaction was started by adding 0.3 ml of a 10^-3 molar solution of hypoxanthine to the absorption cell. The reaction was followed by spectrophotometric recording of the oxidation rate of hypoxanthine at 293 nm and at 37° C. The optical density was automatically registered. The same measurements were performed with a control solution containing all the ingredients referred to above except the compound being tested.
In this way, a curve representing the variation in optical density in comparison with time was obtained with the solution containing the inhibitor on the one hand and devoid of inhibitor on the other. The slope of both curves was measured and expressed in the number of mols of uric acid formed in one minute. Thus, it was possible to compare the values obtained and calculate, in percent, the inhibition of the activity of xanthine oxidase provoked by a compound of the invention.

T1 sequence (P80457 whole entry): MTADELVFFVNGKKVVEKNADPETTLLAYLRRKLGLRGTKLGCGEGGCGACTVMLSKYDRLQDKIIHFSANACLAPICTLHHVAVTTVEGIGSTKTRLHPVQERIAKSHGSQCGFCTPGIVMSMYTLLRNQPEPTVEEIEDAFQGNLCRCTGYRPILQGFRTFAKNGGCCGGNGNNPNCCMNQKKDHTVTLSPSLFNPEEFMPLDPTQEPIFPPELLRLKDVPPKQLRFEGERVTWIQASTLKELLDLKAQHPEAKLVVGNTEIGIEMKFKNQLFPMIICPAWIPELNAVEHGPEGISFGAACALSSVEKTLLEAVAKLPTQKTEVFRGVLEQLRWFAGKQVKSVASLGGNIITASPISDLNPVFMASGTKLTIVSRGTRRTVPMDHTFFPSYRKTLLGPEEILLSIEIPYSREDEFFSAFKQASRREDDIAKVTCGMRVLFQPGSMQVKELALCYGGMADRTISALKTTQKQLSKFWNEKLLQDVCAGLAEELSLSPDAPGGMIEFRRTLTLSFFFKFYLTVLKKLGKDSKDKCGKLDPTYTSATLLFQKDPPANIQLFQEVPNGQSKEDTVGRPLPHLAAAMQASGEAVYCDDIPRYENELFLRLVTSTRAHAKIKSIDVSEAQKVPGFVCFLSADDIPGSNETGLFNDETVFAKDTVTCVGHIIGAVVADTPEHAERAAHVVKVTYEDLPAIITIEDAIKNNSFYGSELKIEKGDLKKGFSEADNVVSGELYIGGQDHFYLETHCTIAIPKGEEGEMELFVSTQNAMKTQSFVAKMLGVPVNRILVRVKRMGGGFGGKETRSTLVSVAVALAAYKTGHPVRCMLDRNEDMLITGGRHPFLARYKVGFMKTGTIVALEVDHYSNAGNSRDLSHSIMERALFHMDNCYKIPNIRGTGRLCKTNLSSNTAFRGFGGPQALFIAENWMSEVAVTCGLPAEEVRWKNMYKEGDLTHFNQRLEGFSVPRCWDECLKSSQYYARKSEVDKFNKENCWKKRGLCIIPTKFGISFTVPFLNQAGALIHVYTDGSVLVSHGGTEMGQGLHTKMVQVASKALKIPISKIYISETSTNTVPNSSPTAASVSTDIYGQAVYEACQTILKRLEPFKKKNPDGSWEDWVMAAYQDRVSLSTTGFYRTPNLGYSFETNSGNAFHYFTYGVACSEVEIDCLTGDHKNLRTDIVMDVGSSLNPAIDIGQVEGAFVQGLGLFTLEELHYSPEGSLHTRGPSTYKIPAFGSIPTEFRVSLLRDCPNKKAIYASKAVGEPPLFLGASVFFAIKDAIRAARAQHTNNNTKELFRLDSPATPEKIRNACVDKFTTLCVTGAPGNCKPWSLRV

SMILES	inhibition at 10 µM
O=C(c1ccc(O)c(Br)c1)c1c(-c2ccc(Br)cc2)cc2ccccn12 [4-Bromo-phenyl H H Br, 2-(4-Bromo-phenyl)-3-(3-bromo-4-hydroxy-benzoyl)-indolizine]	22%
CCCc1c(Br)c2ccccn2c1C(=O)c1ccc(O)c(Cl)c1 [n-Propyl Br H Cl, 1-Bromo-2-n-propyl-3-(3-chloro-4-hydroxy-benzoyl)-indolizine]	84%
CCc1c(Cl)c2ccccn2c1C(=O)c1cc(Br)c(O)c(Br)c1 [Ethyl Cl Br Br, 1-Chloro-2-ethyl-3-(3,5-dibromo-4-hydroxy-benzoyl)-indolizine]	64%
O=C(c1cc(Br)c(O)c(Br)c1)c1c(-c2ccc(Br)cc2)cc2ccccn12 [4-Bromo-phenyl H Br Br, 2-(4-Bromo-phenyl)-3-(3,5-dibromo-4-hydroxy-benzoyl)-indolizine]	23%
CCc1c(Cl)c2ccccn2c1C(=O)c1ccc(O)c(Br)c1 [Ethyl Cl Br H, 1-Chloro-2-ethyl-3-(3-bromo-4-hydroxy-benzoyl)-indolizine]	34%
Cc1cc2ccccn2c1C(=O)c1cc(Cl)c(O)c(Cl)c1 [Methyl H Cl Cl, 2-Methyl-3-(3,5-dichloro-4-hydroxy-benzoyl)-indolizine]	84%
CCCc1c(Br)c2ccccn2c1C(=O)c1ccc(O)c(Br)c1 [n-Propyl Br Br H, 1-Bromo-2-n-propyl-3-(3-bromo-4-hydroxy-benzoyl)-indolizine]	97%
CC(C)c1cc2ccccn2c1C(=O)c1ccc(O)c(Cl)c1 [Isopropyl H H Cl, 2-Isopropyl-3-(3-chloro-4-hydroxy-benzoyl)-indolizine]	88%
COc1ccc(-c2c(Br)c3ccccn3c2C(=O)c2ccc(O)c(Br)c2)cc1 [4-Methoxy-phenyl Br Br H, 1-Bromo-2-(4-methoxy-phenyl)-3-(3-bromo-4-hydroxy-benzoyl)-indolizine]	80%

Target: T2, adenosine deaminase obtained from calf intestine (Bos taurus, UniProt P56658)
T2 construct: purchased
T2 sequence (P56658 1-363): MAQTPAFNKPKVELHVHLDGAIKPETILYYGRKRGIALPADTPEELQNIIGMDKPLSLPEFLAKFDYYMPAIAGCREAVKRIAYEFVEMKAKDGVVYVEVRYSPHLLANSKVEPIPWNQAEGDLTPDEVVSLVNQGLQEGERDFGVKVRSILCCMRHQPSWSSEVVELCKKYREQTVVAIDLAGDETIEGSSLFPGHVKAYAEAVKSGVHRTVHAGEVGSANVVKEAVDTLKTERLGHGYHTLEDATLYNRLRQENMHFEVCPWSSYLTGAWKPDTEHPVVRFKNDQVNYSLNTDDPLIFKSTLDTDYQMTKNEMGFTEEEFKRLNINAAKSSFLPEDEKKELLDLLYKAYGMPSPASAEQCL
Experiment: Inhibition of the action of adenosine deaminase in vitro (decrease in absorbance at 265 nm)
Format: biochemical
Conditions: 5.10^-5 M adenosine; pH 7.4, 30° C.
Description: This test was performed with adenosine deaminase obtained from calf intestine.
as §1
In the absorption cell the following solutions were introduced:
2.7 ml of a 0.1 molar phosphate buffer solution (pH=7.4)
0.3 ml of a 10^-4 or 5.10^-4 molar solution of adenosine in the phosphate buffer solution (final concentration in adenosine: 10^-5 or 5.10^-5 mol) 0.01 ml of a 3.10^-3 molar ethanolic solution of the compound to be studied (about 10 milliunits)
The contents of the absorption cell were allowed to incubate for 2 minutes and then the enzymatic reaction was started by adding 0.03 ml of a commercial adenosine deaminase solution having a known concentration in enzyme. The reaction was performed at 30° C. and followed by spectrophotometric recording of the decrease in absorbance at 265 nm due to the transformation of adenosine into inosine by means of adenosine deaminase. This enzymatic reaction can be represented by the following equation: [formula]
The same measurements were performed with a control solution containing all the ingredients referred to above except the compound being studied. Curves were then plotted representing the decrease in absorbance in comparison with time obtained on the one hand with the solution containing the inhibitor and on the other with the control solution.
The slope of both curves was measured and expressed in the number of mols of inosine formed in one minute. After that, the percent of inhibition of the activity of adenosine deaminase provoked by a compound of the invention was calculated.

SMILES	Inhibition of the action of adenosine deaminase in vitro (in %) At 5.10^-5 M adenosine
COc1cc(C(=O)c2c(-c3ccc(F)cc3)cc3ccccn23)ccc1O [4-Fluoro-phenyl H H OCH3, 2-(4-Fluoro-phenyl)-3-(3-methoxy-4-hydroxy-benzoyl)-indolizine]	39%
O=C(c1cc(Cl)c(O)c(Cl)c1)c1c(-c2ccccc2)c(Cl)c2ccccn12 [Phenyl Cl Cl Cl, 1-Chloro-2-phenyl-3-(3,5-dichloro-4-hydroxy-benzoyl)-indolizine]	57%
COc1c(-c2ccccc2)c(C(=O)c2ccc(O)c(Br)c2)n2ccccc12 [Phenyl OCH3 Br H, 1-Methoxy-2-phenyl-3-(3-bromo-4-hydroxy-benzoyl)-indolizine]	91%
O=C(c1ccc(O)c(Cl)c1)c1c(-c2ccccc2)c(Br)c2ccccn12 [Phenyl Br Cl H, 1-Bromo-2-phenyl-3-(3-chloro-4-hydroxy-benzoyl)-indolizine]	86%
O=C(c1ccc(O)cc1)c1c(-c2ccccc2)c(Br)c2ccccn12 [Phenyl Br H H, 1-Bromo-2-phenyl-3-(4-hydroxy-benzoyl)-indolizine]	52%
COc1c(-c2ccccc2)c(C(=O)c2ccc(O)c(Cl)c2)n2ccccc12 [Phenyl OCH3 Cl H, 1-Methoxy-2-phenyl-3-(3-chloro-4-hydroxy-benzoyl)-indolizine]	82%
CC(C)c1c(Br)c2ccccn2c1C(=O)c1ccc(O)c(Br)c1 [Isopropyl Br Br H, 1-Bromo-2-isopropyl-3-(3-bromo-4-hydroxy-benzoyl)-indolizine]	54%
O=C(c1ccc(O)cc1)c1c(-c2cccc(Br)c2)c(Cl)c2ccccn12 [3-Bromo-phenyl Cl H H, 1-Chloro-2-(3-bromo-phenyl)-3-(4-hydroxy-benzoyl)indolizine]	55%

Same assay, conditions: 10^-5 M adenosine; pH 7.4, 30° C.

SMILES	Inhibition of the action of adenosine deaminase in vitro (in %) At 10^-5 M adenosine
CC(C)c1oc2ccccc2c1C(=O)c1cc(Br)c(O)c(Br)c1 [2-isopropyl-3-(3,5-dibromo-4-hydroxy-benzoyl)-benzofuran, reference compound]	totally inactive
CCCCc1cc2ccccn2c1C(=O)c1ccc(O)c(Br)c1 [n-Butyl H H Br, 2-n-Butyl-3-(3-bromo-4-hydroxy-benzoyl)-indolizine]	60%
CCc1oc2ccccc2c1C(=O)c1ccc(O)cc1 [2-ethyl-3-(4-hydroxy-benzoyl)-benzofuran, reference compound]	18%
CCCCc1c(Br)c2ccccn2c1C(=O)c1ccc(O)cc1 [n-Butyl Br H H, 1-Bromo-2-n-butyl-3-(4-hydroxy-benzoyl)-indolizine]	45%
CCCc1cc2ccccn2c1C(=O)c1ccc(O)c(Cl)c1 [n-Propyl H H Cl, 2-n-Propyl-3-(3-chloro-4-hydroxy-benzoyl)-indolizine]	42%
CCc1oc2ccccc2c1C(=O)c1cc(Br)c(O)c(Br)c1 [2-ethyl-3-(3,5-dibromo-4-hydroxy-benzoyl)-benzofuran, reference compound]	totally inactive
O=C(c1ccc(O)c(Br)c1)c1c(-c2ccccc2)cc2ccccn12 [Phenyl H H Br, 2-Phenyl-3-(3-bromo-4-hydroxy-benzoyl)-indolizine]	78%
CCCCc1oc2ccccc2c1C(=O)c1cc(Br)c(O)c(Br)c1 [2-n-butyl-3-(3,5-dibromo-4-hydroxy-benzoyl)-benzofuran, reference compound]	totally inactive
O=C(c1ccc(O)c(Cl)c1)c1c(-c2ccccc2)cc2ccccn12 [Phenyl H H Cl, 2-Phenyl-3-(3-chloro-4-hydroxy-benzoyl)-indolizine]	58%
O=C(c1cc(Br)c(O)c(Br)c1)c1c(-c2ccccc2)oc2ccccc12 [2-phenyl-3-(3,5-dibromo-4-hydroxy-benzoyl)-benzofuran, reference compound]	15%
O=C(c1ccc(O)c(Br)c1)c1c(-c2ccc(F)cc2)cc2ccccn12 [4-Fluoro-phenyl H H Br, 2-(4-Fluoro-phenyl)-3-(3-bromo-4-hydroxy-benzoyl)-indolizine]	60%
CCc1oc2ccccc2c1C(=O)c1cc(I)c(O)c(I)c1 [2-ethyl-3-(3,5-diiodo-4-hydroxy-benzoyl)-benzofuran, reference compound]	totally inactive
CC(C)c1c(Br)c2ccccn2c1C(=O)c1cc(Br)c(O)c(Br)c1 [Isopropyl Br Br Br, 1-Bromo-2-isopropyl-3-(3,5-dibromo-4-hydroxy-benzoyl)-indolizine]	57%
CC(C)c1c(Br)c2ccccn2c1C(=O)c1ccc(O)c(Br)c1 [Isopropyl Br Br H, 1-Bromo-2-isopropyl-3-(3-bromo-4-hydroxy-benzoyl)-indolizine]	75%

— patent publication US4400387A, “Indolizine derivatives and uses in therapeutics” (S. A. Labaz-Sanofi N.V., priority 1979, dated 1983)
